Data reported in patent US20220332695A1, “UREA DERIVATIVES AS CB1 ALLOSTERIC MODULATORS” (RTI INTERNATIONAL, priority 2019, published 2022).
Converted amounts (≈) assume the structure as drawn. “Also recorded” adds a separate entry of the source. Like-named read-outs stand apart in the source and are kept apart here.

How the values were obtained:
mouse CB1R = target: T1, mouse CB1R (Mus musculus, UniProt P47746); test: [35S]GTPγS binding assay in mouse cerebellum membranes; type: biochemical
T1 construct: membranes (10 μg protein) from either ICR mouse cerebellum mice; from tissue; host or cells: cerebellum membranes of ICR mice
T1 sequence (P47746 whole entry): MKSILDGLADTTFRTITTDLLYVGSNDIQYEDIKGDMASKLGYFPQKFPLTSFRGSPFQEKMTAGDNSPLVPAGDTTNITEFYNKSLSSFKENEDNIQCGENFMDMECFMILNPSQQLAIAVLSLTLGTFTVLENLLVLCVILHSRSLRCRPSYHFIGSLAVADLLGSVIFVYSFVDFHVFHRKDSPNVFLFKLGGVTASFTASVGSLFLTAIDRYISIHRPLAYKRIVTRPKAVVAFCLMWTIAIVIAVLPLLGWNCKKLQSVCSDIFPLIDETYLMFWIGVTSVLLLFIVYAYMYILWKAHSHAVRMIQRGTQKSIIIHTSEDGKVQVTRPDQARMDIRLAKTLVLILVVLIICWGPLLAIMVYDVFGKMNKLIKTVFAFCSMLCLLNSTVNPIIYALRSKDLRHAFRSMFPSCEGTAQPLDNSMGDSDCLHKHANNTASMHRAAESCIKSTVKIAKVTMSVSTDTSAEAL
Procedure: (§6) [^35S]GTPγS Binding Assay: For receptor signaling, membranes (10 μg protein) from either ICR mouse cerebellum mice (6-8 weeks old; Enviga
(§7) Non-specific binding was determined by adding 30 μM unlabeled GTPyS. Concentration response curves for allosteric modulators were conducted in the presence of CP55,940 (100 nM or 1 μM) to calculate 1050 values.
(§8) For [^35S]GTPyS experiments, data were normalized to maximal CP55,940 (100 nM) stimulation in the absence of test compound (i.e., vehicle=100%).
Select compounds were evaluated in the CP55,940-induced [^35S]GTPyS binding assays using mouse cerebellum membrane at two CP55,940 concentrations, 100 nM and 1μM.

hCB1R [1] = target: T2, hCB1R (Homo sapiens, UniProt P21554); test: Intrinsic activity: basal [35S]GTPγS binding in the absence of CP55,940; type: biochemical; settings: up to 10 μM
T2 sequence (P21554 whole entry): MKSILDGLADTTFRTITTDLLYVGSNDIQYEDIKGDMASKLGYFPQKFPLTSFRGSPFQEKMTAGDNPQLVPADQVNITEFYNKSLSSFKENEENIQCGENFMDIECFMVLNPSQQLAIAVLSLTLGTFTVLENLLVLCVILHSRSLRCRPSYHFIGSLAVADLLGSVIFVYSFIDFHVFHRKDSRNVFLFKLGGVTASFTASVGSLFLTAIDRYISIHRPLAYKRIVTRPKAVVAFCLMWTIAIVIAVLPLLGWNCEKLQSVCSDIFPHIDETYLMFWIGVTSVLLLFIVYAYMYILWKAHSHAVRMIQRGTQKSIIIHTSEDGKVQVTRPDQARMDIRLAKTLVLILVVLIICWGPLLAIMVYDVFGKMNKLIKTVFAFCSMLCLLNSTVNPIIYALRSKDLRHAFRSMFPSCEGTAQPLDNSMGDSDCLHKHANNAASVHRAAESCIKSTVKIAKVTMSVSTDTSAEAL

[2] = Metabolic stability in rat liver microsomes; type: in vitro ADME
Procedure: Metabolic stability assessment: Compounds were incubated with rat liver microsomes at 37° C. for a total of 45 minutes. The reaction was performed at pH 7.4 in 100 mM potassium phosphate buffer containing 0.5 mg/mL of rat liver microsomal protein. Phase I metabolism was assessed by adding NADPH to a final concentration of 1 mM and collecting samples at time points 0, 5, 15, 30 and 45 minutes. All collected samples were quenched 1:1 with ice-cold stop solution (1 μM labetalol and 1 μM glyburide in acetonitrile) and centrifuged to remove precipitated protein. Resulting supernatants were further diluted 1:4 with acetonitrile:water (1:1). Samples were analyzed by LC/MS/MS and calculations for half-life, and in-vitro clearance were accomplished using Microsoft Excel (2007).

[3] = Kinetic solubility assessment; type: physicochemical; settings: phosphate buffer, 2 hours room temperature
Procedure: The solution was agitated on a VX-2500 multi-tube vortexer (VWR International, Radnor, Pa., United States of America) for 2 hours at room temperature. Following agitation, the sample was filtrated on a glass-fiber filter (1 μm) and the eluate was diluted 400-fold with a mixture of acetonitrile: water (1:1). On each experimental occasion, nicardipine and imipramine were assessed as reference compounds for low and high solubility, respectively. All samples were assessed in triplicate and analyzed by LC-MS/MS using electrospray ionization against standards prepared in the same matrix.

MDCK-MDR1 cells = test: Bidirectional MDCK-MDR1 permeability assay; type: in vitro ADME
Procedure: (§1) Permeability Assessment. Bidirectional MDCK-MDR1 permeability assay was performed by Paraza Pharma Inc. (Montreal, Canada). MDCK-mdr1 cells at passage 5 were seeded onto permeable polycarbonate supports in 12-well Costar Transwell plates and allowed to grow and differentiate for 3 days. On day 3, culture medium (DMEM supplemented with 10% FBS) was removed from both sides of the transwell inserts and cells were rinsed with warm HBSS. After the rinse step, the chambers were filled with warm transport buffer (HBSS containing 10 mM HEPES, 0.25% BSA, pH 7.4) and the plates were incubated at 37° C. for 30 min prior to TEER (Trans Epithelial Electric Resistance) measurements.
(§2) The buffer in the donor chamber (apical side for A-to-B assay, basolateral side for B-to-A assay) was removed and replaced with the working solution (10 μM test article in transport buffer). The plates were then placed at 37° C. under light agitation. At designated time points (30, 60 and 90 min), an aliquot of transport buffer from the receiver chamber was removed and replenished with fresh transport buffer. Samples were quenched with ice-cold ACN containing internal standard and then centrifuged to pellet protein. Resulting supernatants are further diluted with 50/50 ACN/H2O (H2O only for Atenolol) and submitted for LC-MS/MS analysis. Reported apparent permeability (Papp) values were calculated from single determination.
(§3) Atenolol and propranolol were tested as low and […] permeability references.
(§4) The apparent permeability (Papp, measured in cm/s) of a compound is determined according to the following formula […]: […]
(§5) where dQ/dt is the net rate of appearance in the receiver compartment; A is the area of the Transwell measured in cm^2 (1.12 cm^2); Ci is the initial concentration of compound added to the donor chamber; and 60 is the conversion factor for minute to second.

locomotion in rats [4] = test: Locomotion in rats; settings: rat, 10 mg/kg i.p.
Source text: (§9) Locomotion is presented as total distance (in millimeters (mm)) versus time (in minutes) after administration. The effects of treatment with vehicle is also shown as a control.

hCB1R [5] = target: T2, hCB1R; test: [35S]GTPγS binding assay in HEK cells stably expressing human CB1R; type: biochemical; set-up: expressed in transfected cells; host or cells: HEK (HEK293) cells, membranes; settings: [CP] = 100 nM, mean (95% confidence interval), read-out: hCB1R [35S]GTPγS binding assay IC50
Procedure: as §6, §7, §8

hCB1R [6] = target: T2, hCB1R; test: Calcium mobilization assay, antagonist mode against CP55,940; type: cell-based; set-up: expressed in transfected cells; host or cells: CHO-RD-HGA16 cells (parental line from Molecular Devices)
Procedure: Calcium Mobilization Assay: CHO-RD-HGA16 cells (Molecular Devices, San Jose, Calif., United States of America) stably expressing the human CB1 receptor were plated into 96-well black-walled assay plates at 25,000 cells/well in 100 pL of Ham's F12 (supplemented with 10% fetal bovine serum, 100 units of penicillin/streptomycin, and 100 µg/mL Normocin) and incubated overnight at 37° C., 5% CO2. Calcium 5 dye (Molecular Devices, San Jose, Calif., United States of America) was reconstituted according to the manufacturer's instructions. The reconstituted dye was diluted 1:40 in prewarmed (37° C.) assay buffer (1x HBSS, 20 mM HEPES, 2.5 mM probenecid, pH 7.4 at 37° C.). Growth medium was removed, and the cells were gently washed with 100 pL of prewarmed (37° C.) assay buffer. The cells were incubated for 45 min at 37° C., 5% CO2 in 200 pL of the diluted Calcium 5 dye solution. […] Serial dilutions of the test compounds were prepared at 10x the desired final concentration in 2.25% BSA/4.5% DMSO/4.5% EtOH/assay buffer. After the dye loading incubation period, the cells were pretreated with 25 pL of the test compound serial dilutions and incubated for 15 min at 37° C. After the pretreatment incubation period, the plate was read with a FLIPR Tetra (Molecular Devices, San Jose, Calif., United States of America). Calcium-mediated changes in fluorescence were monitored every 1 s over a 90 s time period, with the Tetra adding 25 pL of the CP55,940 EC80 concentration at the 10s time point (excitation/emission: 485/525 nm). Relative fluorescence units (RFU) were plotted against the log of compound concentrations. For agonist screens, the above procedure was followed except that cells were pretreated with 2.25% BSA/4.5% DMSO/4.5% EtOH/assay buffer and the Tetra added single concentration dilutions of the test compounds prepared at 10x the desired final concentration in 0.25% BSA/0.5% DMSO/0.5% EtOH/assay buffer. Test compound RFUs were compared to the CP55,940 Emax RFUs to generate % Emax values.
Data Analysis: For calcium mobilization experiments, data were fit to a three-parameter logistic curve to generate IC50 values (GraphPad Prism 6.0, Graphpad Software, San Diego, Calif., United States of America).

hCB1R [7] = target: T2, hCB1R; test: Real-time BRET CAMYEL cAMP assay in HEK293 cells expressing human CB1; type: cell-based; set-up: expressed in transfected cells; host or cells: HEK293 cells stably transfected with human CB1, transiently transfected with pcDNA3L-His-CAMYEL sensor; settings: [CP] = 100 nM; forskolin-stimulated cAMP
Procedure: cAMP Assay: The cAMP assay was performed as previously described. […] Briefly, forskolin (FSK)-stimulated cyclic adenosine monophosphate (cAMP) production was measured in real-time using a transfected bioluminescence resonance energy transfer (BRET) cAMP sensor. The plasmid encodes a cAMP binding domain (Epac1) flanked by yellow fluorescent protein (YFP) and Renilla Luciferase (RLuc) assay, the latter of which can oxidize coelenterazine H and produce a photon as a byproduct. When cAMP is bound to the Epac1 domain, it separates RLuc and YFP so only Rluc emits a photon at a wavelength of 460 nm. When cAMP is not bound, RLuc can excite YFP, emitting light at wavelength 535 nm. A plate reader measures both wavelengths and their ratio, 460/535, is calculated to quantify cAMP levels where increases in the ratio indicate increases in cAMP. Human Embryonic Kidney 293 (HEK293) cells stably transfected with the human cannabinoid type-1 (C131) were maintained at 37° C. at 5% CO2 and seeded in 100 mM dishes for transfection. The next day, cells were given fresh growth media and transfected with 5 pg of pcDNA3L-His-CAMYEL using linear polyethyleneimine (25 kDa, Polysciences, Warrington, Pennsylvania, United States of America) in 1:6 DNA:PEI (ATCC, Manassas, Virginia, United States of America) ratio. The next day, cells were lifted using 1 mM EDTA in PBS and spun down at 200xg for 5 min. The supernatant was removed, and cells were resuspended in growth media and plated on poly-D-lysine (Sigma Aldrich, St. Louis, Missouri, United States of America) coated white 96 well plates at 60,000 cells per well, filling 2 columns of 8 wells each per plate, i.e. 8 samples in duplicate per plate (Perkin Elmer, Waltham, Massachusetts,
United States of America). The following day, media was removed, cells were rinsed with PBS and buffers/reagents/drugs added as following: At 0 min, 175 of stimulation buffer (5 mg/ml bovine serum albumin in HBSS including Ca^2+ and Mg^2+); at 10 min, 25 μL of allosteric modulators added; at 15 min: 25 μL coelenterazine added (5 μM final); at 25 min, 25 μL of forskolin (10 final) with or without CP55,940 (100 nM final) added. […] Ratio of 460/535 is calculated for each time point and plotted across time and area under the curve analysis is conducted for each replicate and averaged by condition/day where each day serves as an independent experiment. Data were calculated as %FSK using the formula [(sample-basal)/(forskolin-basal)×100]. IC50 values were calculated from these normalized concentration-response data using Prism 6 (Graphpad Software, San Diego, Calif., United States of America) using 3 parameter non-linear regression. Data are plotted as mean of at least N=3 independent experiments either normalized to forskolin (concentration response data) or the calculated 460/535 BRET ratio (time course data).

P-gp (MDR1) = test: Bidirectional MDCK-MDR1 permeability assay; type: in vitro ADME; settings: dog, pH 7.4; MDCK-MDR1, 10 μM test article
Procedure: as §1, §2, §3, §4, §5

[8] = system: cocaine-seeking behavior in rats; test: Cocaine-induced reinstatement of extinguished cocaine-seeking behavior; type: in vivo, male Sprague-Dawley rats; settings: rat, 10 mg/kg i.p. pretreatment
Procedure: In both graphs, the effect of treatment with vehicle (unfilled bars) is shown as a control. *p<0.05.
Adult male Sprague-Dawley rats (Harlan, Indianapolis, Ind., United States of America) weighing 280-300 g were used in the study. Animals were housed individually on a 12/12 hr light/dark cycle (behavioral experiments were conducted during the light period) with free access to water and food except during experimental sessions.
The reinstatement procedure has been previously described. See Jing et al., Drug Alcohol Depend. 2014, 143, 251-256; and Thorn et al., Neuropsychopharmacology 2014, 39, 2309-2316. Briefly, rats were surgically implanted with a chronic indwelling jugular catheter. […]
Data analyses: Data are expressed as mean ±S.E.M. Differences in active lever responding between the last extinction session and reinstatement session were determined with paired t tests (within subjects comparison). The effects of compounds 2 on reinstatement were analyzed by a one-way analysis of variance (ANOVA) followed by post hoc Bonferroni's test (between subjects comparison). The effects of compounds 34 on reinstatement was analyzed by Student's t test. […]

locomotion in rats [9] = settings: rat, in vivo, ip, 10 mg/kg
Source text: as §9

SMILES | IC50 (mouse CB1R; mouse cerebellum membrane, [CP] = 100 nM, read-out: mCB1R GTPγS IC50) | inverse agonism (in words) (hCB1R [1]) | Clearance ([2]; mean ± SD) | solubility at 2 h [3] | Efflux BA/AB (MDCK-MDR1 cells; MDCK-MDR1) | Papp A to B (MDCK-MDR1 cells; MDCK-MDR1, 10 μM test article) | Papp B to A (MDCK-MDR1 cells; MDCK-MDR1, 10 μM test article) | effect on locomotion (locomotion in rats [4]) | IC50 (hCB1R [5]) | IC50 (hCB1R [6]; CHO cells expressing human CB1R, against CP55,940 (100 nM), mean ± SEM, read-out: hCB1R Calcium assay IC50) | IC50 (hCB1R [7]) | IC50 (mouse CB1R; Tables 4-6, CP55,940 concentration not stated, mean (95% confidence interval), read-out: mCB1R [35S]GTPγS binding assay IC50) | half-life ([2]; pH 7.4, NADPH, mean ± SD, read-out: Half-life) | microsomal CLint ([2]; pH 7.4, mean ± SD, read-out: Clearance) | solubility at 2 h ([3]; aqueous buffer, kinetic from dmso stock) | Papp A→B at 90 min, 10 µM (P-gp (MDR1)) | Papp B→A at 90 min, 10 µM (P-gp (MDR1)) | effect on cocaine-induced reinstatement of cocaine-seeking behavior [8] | effect on locomotion (locomotion in rats [9]) | IC50 (hCB1R [6])
O=C(Nc1ccc(Cl)cc1)Nc1ccc(-c2ccccc2)s1 [Compound 11, 1-(4-Chlorophenyl)-3-(5-phenylthiophen-2-yl)urea] | 63 nM | some degree of inverse agonism; also recorded: very little inverse agonism | 22.2 ± 6.5 µL/min/mg | 1.5 µM (≈ 0.493 µg/mL) | 0.7 | 1.6 ± 0.1 ×10^−6 cm/s | 1.1 ± 0.4 ×10^−6 cm/s | significant reduction of locomotion | 524 nM | 7 nM | 1760 nM | – | – | – | – | – | – | – | – | –
O=C(NCCc1cccc(Cl)c1)Nc1ccc(Cl)cc1 [Compound 68, 3-(4-Chlorophenyl)1-[2-(3-chlorophenyl)ethyl]urea] | – | – | – | – | – | – | – | – | – | – | – | 561 nM | 9.6 min | 144 ± 8.4 µL/min/mg | < 0.5 µM | > 15 ×10⁻⁶ cm/s | > 15 ×10⁻⁶ cm/s | good in vivo efficacy; also recorded: attenuated cocaine-induced reinstatement of cocaine-seeking behavior | did not affect locomotion | 30 ± 4 nM
